From US8575197B2, “Pyrolinone derivative and pharmaceutical composition comprising the same” (Shionogi & Co., Ltd., priority 2008, dated 2013) come the findings set out here.

For this experiment, the target named is human P2X3 receptor (Homo sapiens (Human), UniProt P56373). Nature of the experiment: P2X3 receptor inhibition, ATP-evoked Fluo-3 calcium fluorescence (FDSS 3000). In kind it is cell-based. To be noted: C6BU-1 cell transfected with human P2X3 receptor gene; ATP-evoked Fluo-3 fluorescence. In a few lines: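 C6BU-1 cells stably transfected with human P2X3, loaded with 4 μM Fluo-3-AM for 1 h at 37 °C in HEPES buffer pH 7.5 with probenecid. Compound added 5 min before 40 nM ATP solution; fluorescence followed 3 min. IC50 from ratio of peak post-ATP to baseline fluorescence.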
human P2X3 receptor, sequence (P56373 whole entry): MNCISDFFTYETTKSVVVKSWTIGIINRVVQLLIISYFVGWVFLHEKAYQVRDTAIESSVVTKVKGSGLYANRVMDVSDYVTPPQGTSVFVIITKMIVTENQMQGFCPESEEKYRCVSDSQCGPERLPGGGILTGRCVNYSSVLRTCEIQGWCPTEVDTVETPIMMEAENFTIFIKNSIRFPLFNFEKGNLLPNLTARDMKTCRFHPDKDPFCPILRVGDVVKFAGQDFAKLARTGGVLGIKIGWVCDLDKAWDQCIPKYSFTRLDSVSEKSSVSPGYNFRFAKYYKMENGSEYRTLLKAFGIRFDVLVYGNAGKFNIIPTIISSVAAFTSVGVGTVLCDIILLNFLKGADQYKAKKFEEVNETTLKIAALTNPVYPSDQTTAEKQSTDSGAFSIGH
By IC50 is commonly meant the concentration that gives 50% inhibition. For the compound `CC(C)(C)c1n[nH]c2c1C(c1ccccc1OC(F)(F)F)N(c1ccc(-c3ccon3)cc1)C2=O` (centres unmarked) [II-061], the IC50 came to 166 nM.

Regarding `COc1ccc(F)cc1C1c2c(C(C)(C)C)n[nH]c2C(=O)N1c1ccc(-c2ccon2)cc1` (centres unmarked) [II-062], the IC50 worked out at 112 nM.

On to `COc1ccccc1C1c2c(C3(CO)CCCCC3)n[nH]c2C(=O)N1c1ccc(-c2ccon2)cc1` (centres unmarked) [II-064], for which the IC50 is 75 nM.

With `COc1ccccc1C1c2c(C(C)C)n[nH]c2CN1c1ccc(-c2ccsc2)cc1` (centres unmarked) [II-067], the IC50 stood at 153 nM.

Consider `COCc1ccccc1C1c2c(C(C)(C)C)n[nH]c2C(=O)N1c1ccc(-c2cc(C)no2)cc1` (centres unmarked) [II-068], for which the IC50 came out at 508 nM.

Regarding `COCc1ccccc1C1c2c(C(C)(C)C)n[nH]c2C(=O)N1c1ccc(-c2noc(C)n2)cc1` (centres unmarked) [II-069], the concentration for half-maximal inhibition (IC50) was found to be 414 nM.

In the case of `COc1ccccc1C1c2c(C(C)(C)C)n[nH]c2C(=O)N1c1ccc(CN(C)C)cc1` (centres unmarked) [II-072], the IC50 amounted to 739 nM.

On to `COc1ccccc1C1c2c(CC(C)(C)C)n[nH]c2C(=O)N1c1ccc(-c2ccon2)cc1` (centres unmarked) [II-073], for which the IC50 came to 105 nM.

As to `CC(C)(C)c1n[nH]c2c1C(c1cccc[n+]1[O-])N(c1ccc(-c3ccsc3)cc1)C2=O` (centres unmarked) [II-074], the IC50 came out at 32 nM.

For `CC(C)(C)c1n[nH]c2c1C(c1ccccc1OCC(N)=O)N(c1ccc(-c3ccon3)cc1)C2=O` (centres unmarked) [II-075], the IC50 came to 153 nM.

Take `C[S+]([O-])CCOc1ccccc1C1c2c(C(C)(C)C)n[nH]c2C(=O)N1c1ccc(-c2ccsc2)cc1` (centres unmarked) [II-076]: the IC50 turned out to be 12 nM.

On to `CNC(=O)COc1ccccc1C1c2c(C(C)(C)C)n[nH]c2C(=O)N1c1ccc(-c2ccon2)cc1` (centres unmarked) [II-077], for which the IC50 turned out to be 237 nM.

As to `CC(C)c1n[nH]c2c1C(c1ccccc1OCCN(C)C)N(c1ccc(-c3ccsc3)cc1)C2=O` (centres unmarked) [II-078], the IC50 was 16 nM.

Take `COc1ccccc1C1c2c(C(C)C)n[nH]c2C(=O)N1c1ccc(-c2ccsc2)cc1` (centres unmarked) [II-079]: the IC50 was found to be 11 nM.

For the compound `CC(C)c1n[nH]c2c1C(c1ccccc1OCC[S+](C)[O-])N(c1ccc(-c3ccsc3)cc1)C2=O` (centres unmarked) [II-080], the IC50 came to 11 nM.

As to `CC(C)c1n[nH]c2c1C(c1ccccc1N)N(c1ccc(-c3ccsc3)cc1)C2=O` (centres unmarked) [II-081], the half-maximal inhibitory concentration (IC50) is 189 nM.

In the case of `CC(=O)N(C)c1ccccc1C1c2c(C(C)C)n[nH]c2C(=O)N1c1ccc(-c2ccsc2)cc1` (centres unmarked) [II-082], the IC50 worked out at 44 nM.

Regarding `COc1ccccc1C1c2c(C3CC3)n[nH]c2C(=O)N1c1ccc(-c2ccsc2)cc1` (centres unmarked) [II-083], the IC50 was 24 nM.

In the case of `CC(C)c1n[nH]c2c1C(c1ccccc1CN(C)C)N(c1ccc(-c3ccsc3)cc1)C2=O` (centres unmarked) [II-084], the 50% inhibitory concentration (IC50) is 18 nM.

Turning to `CC(=O)Nc1ccccc1C1c2c(C(C)C)n[nH]c2C(=O)N1c1ccc(-c2ccsc2)cc1` (centres unmarked) [II-085], the IC50 was 23 nM.

Turning to `CC(C)c1n[nH]c2c1C(c1ccccc1CO)N(c1ccc(-c3ccsc3)cc1)C2=O` (centres unmarked) [II-086], the concentration for half-maximal inhibition (IC50) came to 32 nM.

Turning to `CC(C)c1n[nH]c2c1C(c1ccccc1NC(N)=O)N(c1ccc(-c3ccsc3)cc1)C2=O` (centres unmarked) [II-087], the IC50 came to 9 nM.

On to `CC(C)c1n[nH]c2c1C(c1ccccc1NS(C)(=O)=O)N(c1ccc(-c3ccsc3)cc1)C2=O` (centres unmarked) [II-088], for which the IC50 was 4 nM.

As for `CC(C)c1n[nH]c2c1C(c1ccccc1C(=O)O)N(c1ccc(-c3ccsc3)cc1)C2=O` (centres unmarked) [II-089], the IC50 is 107 nM.

For `CC(C)c1n[nH]c2c1C(c1ccccc1C(N)=O)N(c1ccc(-c3ccsc3)cc1)C2=O` (centres unmarked) [II-090], the IC50 was determined as 2 nM.

As to `CC(C)c1n[nH]c2c1C(c1ccccc1C(=O)NCCO)N(c1ccc(-c3ccsc3)cc1)C2=O` (centres unmarked) [II-091], the IC50 was 2 nM.

Regarding `CNC(=O)c1ccccc1C1c2c(C(C)C)n[nH]c2C(=O)N1c1ccc(-c2ccsc2)cc1` (centres unmarked) [II-092], the IC50 is 2 nM.

In the case of `CC(C)c1n[nH]c2c1C(c1ccccc1C(=O)N(C)C)N(c1ccc(-c3ccsc3)cc1)C2=O` (centres unmarked) [II-093], the IC50 worked out at 2 nM.

Take `CC(C)c1n[nH]c2c1C(c1ccccc1CC(=O)O)N(c1ccc(-c3ccsc3)cc1)C2=O` (centres unmarked) [II-094]: the IC50 stood at 65 nM.

For the compound `COC(=O)Nc1ccccc1C1c2c(C(C)C)n[nH]c2C(=O)N1c1ccc(-c2ccsc2)cc1` (centres unmarked) [II-095], the IC50 came out at 12 nM.

In the case of `COc1ccccc1C1c2c(C(C)(C)C)n[nH]c2C(=O)N1c1ccc(OC(F)(F)F)cc1` (centres unmarked) [II-097], the IC50 was 358 nM.

For the compound `COc1ccc(N2C(=O)c3[nH]nc(C(C)(C)C)c3C2c2ccccc2OC)cc1` (centres unmarked) [II-098], the IC50 came to 761 nM.

As for `CSc1ccccc1C1c2c(C(C)(C)C)n[nH]c2C(=O)N1c1ccc(-c2ccon2)cc1` (centres unmarked) [II-099], the IC50 came out at 46 nM.

Consider `CC(C)(C)c1n[nH]c2c1C(c1ccccc1OCCO)N(c1ccc(-c3ccon3)cc1)C2=O` (centres unmarked) [II-100], for which the IC50 was 31 nM.

Take `CCOc1ccccc1C1c2c(C(C)(C)C)n[nH]c2C(=O)N1c1ccc(-c2ccon2)cc1` (centres unmarked) [II-101]: the half-maximal inhibitory concentration (IC50) was found to be 27 nM.

Turning to `CC(C)(C)c1n[nH]c2c1C(c1ccccc1OCCO)N(c1ccc(-c3ccsc3)cc1)C2=O` (centres unmarked) [II-104], the IC50 was determined as 3 nM.

For the compound `CC(C)(C)c1n[nH]c2c1C(c1ccccc1OCCO)N(c1ccc(-c3ccco3)cc1)C2=O` (centres unmarked) [II-105], the IC50 worked out at 13 nM.

`CCc1ccccc1C1c2c(C(C)(C)C)n[nH]c2C(=O)N1c1ccc(-c2ccon2)cc1` (centres unmarked) [II-106]: the IC50 worked out at 226 nM.

For `CC(C)(C)c1n[nH]c2c1C(c1ccccc1O)N(c1ccc(-c3ccon3)cc1)C2=O` (centres unmarked) [II-107], the concentration for half-maximal inhibition (IC50) is 114 nM.

As to `CC(C)(C)c1n[nH]c2c1C(c1ccccc1OCC#N)N(c1ccc(-c3ccon3)cc1)C2=O` (centres unmarked) [II-108], the IC50 is 15 nM.

Turning to `COc1ncccc1C1c2c(C(C)(C)CO)n[nH]c2C(=O)N1c1ccc(-c2ccsc2)cc1` (centres unmarked) [II-109], the IC50 came to 21 nM.

In the case of `COc1ncccc1C1c2c(C(C)(C)CO)n[nH]c2C(=O)N1c1ccc(-c2cccs2)cc1` (centres unmarked) [II-110], the IC50 worked out at 24 nM.

For `COc1ncccc1C1c2c(C(C)(C)CO)n[nH]c2C(=O)N1c1ccc(-c2ccco2)cc1` (centres unmarked) [II-111], the half-maximal inhibitory concentration (IC50) stood at 91 nM.

For the compound `CC(C)(C)c1n[nH]c2c1C(c1ccccc1S(C)(=O)=O)N(c1ccc(-c3ccon3)cc1)C2=O` (centres unmarked) [II-112], the IC50 was 389 nM.

As to `CC(C)(C)c1n[nH]c2c1C(c1ccccc1CO)N(c1ccc(-c3ccon3)cc1)C2=O` (centres unmarked) [II-113], the IC50 amounted to 838 nM.

With `COCCOc1ccccc1C1c2c(C(C)(C)C)n[nH]c2C(=O)N1c1ccc(-c2cccs2)cc1` (centres unmarked) [II-114], the IC50 stood at 12 nM.

As to `COCCOc1ccccc1C1c2c(C(C)(C)C)n[nH]c2C(=O)N1c1ccc(-c2ccsc2)cc1` (centres unmarked) [II-115], the IC50 turned out to be 11 nM.

Take `COc1ccc(-c2n[nH]c3c2C(c2ccccc2OCCO)N(c2nc4cc(OC)ccc4s2)C3=O)cc1` (centres unmarked) [II-117]: the IC50 was 348 nM.

Consider `COc1ccc(-c2n[nH]c3c2C(c2ccccc2OCCO)N(c2nc4ccc(OC)cc4s2)C3=O)cc1` (centres unmarked) [II-118], for which the IC50 worked out at 429 nM.

For the compound `CN(C)c1ccccc1C1c2c(C(C)(C)C)n[nH]c2C(=O)N1c1ccc(-c2ccon2)cc1` (centres unmarked) [II-119], the IC50 stood at 137 nM.

Regarding `Cc1ncccc1C1c2c(C(C)(C)C)n[nH]c2C(=O)N1c1ccc(-c2cccs2)cc1` (centres unmarked) [II-121], the IC50 is 464 nM.

On to `Cc1ncccc1C1c2c(C(C)(C)C)n[nH]c2C(=O)N1c1ccc(-c2ccsc2)cc1` (centres unmarked) [II-123], for which the IC50 was 431 nM.

Regarding `CC(C)(C)c1n[nH]c2c1C(c1ccccc1OCCO)N(c1ccc(-c3ccoc3)cc1)C2=O` (centres unmarked) [II-124], the IC50 worked out at 8 nM.

`COCCOc1ccccc1C1c2c(C(C)(C)C)n[nH]c2C(=O)N1c1ccc(-c2ccoc2)cc1` (centres unmarked) [II-125]: the IC50 came out at 10 nM.

For `COCc1ncccc1C1c2c(C(C)(C)C)n[nH]c2C(=O)N1c1ccc(-c2ccsc2)cc1` (centres unmarked) [II-126], the IC50 amounted to 221 nM.

Regarding `CC(C)c1n[nH]c2c1C(c1ccccc1OCC#N)N(c1ccc(-c3ccsc3)cc1)C2=O` (centres unmarked) [II-127], the IC50 stood at 4 nM.

With `COC(=O)COCc1ncccc1C1c2c(C(C)(C)C)n[nH]c2C(=O)N1c1ccc(-c2ccsc2)cc1` (centres unmarked) [II-128], the IC50 is 216 nM.

In the case of `COCCOc1ccccc1C1c2c(C(C)(C)CO)n[nH]c2C(=O)N1c1ccc(-c2ccsc2)cc1` (centres unmarked) [II-130], the IC50 was 4 nM.

Take `CC(C)(C)c1n[nH]c2c1C(c1ccccc1C(=O)O)N(c1ccc(-c3ccsc3)cc1)C2=O` (centres unmarked) [II-131]: the IC50 is 88 nM.

`COCCOc1ccccc1C1c2c(C(C)(C)CO)n[nH]c2C(=O)N1c1ccc(-c2ccon2)cc1` (centres unmarked) [II-132]: the IC50 was 141 nM.

On to `COCc1ncccc1C1c2c(C(C)C)n[nH]c2C(=O)N1c1ccc(-c2ccsc2)cc1` (centres unmarked) [II-133], for which the IC50 stood at 116 nM.

Turning to `COc1ccccc1C1c2c(C(C)(C)CO)n[nH]c2C(=O)N1c1ccc(-c2cc(C)no2)cc1` (centres unmarked) [II-136], the IC50 stood at 55 nM.

As to `COc1ccccc1C1c2c(C(C)(C)CO)n[nH]c2C(=O)N1c1ccc(-c2noc(C)n2)cc1` (centres unmarked) [II-137], the half-maximal inhibitory concentration (IC50) was determined as 148 nM.

Turning to `COc1ccccc1C1c2c(C(C)(C)CO)n[nH]c2C(=O)N1c1ccc(-c2nc(C)no2)cc1` (centres unmarked) [II-138], the IC50 is 44 nM.

Turning to `COc1ccccc1C1c2c(C(C)(C)CO)n[nH]c2C(=O)N1c1nc2ccccc2s1` (centres unmarked) [II-139], the IC50 was 332 nM.

With `COc1ccccc1C1c2c(C(C)(C)CO)n[nH]c2C(=O)N1c1ccc(-c2nccs2)cc1` (centres unmarked) [II-141], the IC50 amounted to 22 nM.

For `COc1ccc2nc(N3C(=O)c4[nH]nc(C(C)(C)CO)c4C3c3ccccc3OC)sc2c1` (centres unmarked) [II-142], the half-inhibitory concentration (IC50) was 104 nM.

Take `CCC(CC)(CO)c1n[nH]c2c1C(c1ccccc1OC)N(c1ccc(-c3ccon3)cc1)C2=O` (centres unmarked) [II-145]: the 50% inhibitory concentration (IC50) came to 33 nM.

For `CNc1cc(-c2ccc(N3C(=O)c4[nH]nc(C(C)(C)C)c4C3c3ccccc3OC)cc2)on1` (centres unmarked) [II-146], the IC50 came out at 416 nM.

In the case of `COc1ccccc1C1c2c(C(C)(C)C)n[nH]c2C(=O)N1c1ccc(-c2cc(NC(C)=O)no2)cc1` (centres unmarked) [II-147], the IC50 came to 977 nM.

Take `COc1ccccc1C1c2c(C(F)(F)F)n[nH]c2C(=O)N1c1ccc(-c2ccon2)cc1` (centres unmarked) [II-148]: the IC50 is 311 nM.
